Laboratory results taken from patent US20260078103A1, “ISOQUINOLONES AS PI3K INHIBITORS” (OnKure, Inc., priority 2022, published 2026).
Read-outs that look alike come from different tables or passages of the source.

Columns and labels:
Type in all cases: cell-based
[1] = system: SKBR3 cells express WT PI3Ka; experiment: In vitro cell proliferation, SKBR3 cells (CellTiter-Glo); settings: inhibition of proliferation
Method in brief: (§1)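 EC50 values derive from a four-parameter logistic fit of luminescence-based (CellTiter-Glo) inhibition, referenced to 0.1% DMSO and 10 uM Alpelisib controls. Compound exposure lasted 72 h at 37 °C.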

[2] = system: phosphorylation of AKT (pAKT) in T47D cells expressing mutant PI3Ka (H1047R); experiment: In vitro cell pAKT (Ser473) HTRF, T47D cells; settings: cellular pAKT, T47D cells, mutant PI3Ka (H1047R), 6 hours, read-out: Avg T-47D IC50
Method in brief: (§2)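 T47D cells (RPMI, 10% FBS, 0.2 units/mL insulin) or SKBR3 cells (McCoy's 5a, 10% FBS) were seeded onto 10-point compound dilutions and incubated 6 h at 37 °C. After lysis, pAKT was detected overnight by HTRF (Eu cryptate/d2). IC50 was fitted from % inhibition relative to 0.1% DMSO and 10 uM alpelisib controls.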

[3] = system: phosphorylation of AKT (pAKT) in SKBR3 cells express WT PI3Ka; experiment: In vitro cell pAKT (Ser473) HTRF, SKBR3 cells; settings: cellular pAKT
Method in brief: as §2

[4] = system: T47D cells expressing mutant PI3Ka (H1047R); experiment: In vitro cell proliferation, T47D cells (CellTiter-Glo); settings: inhibition of proliferation, read-out: Avg T-47D EC50
Method in brief: as §1

EC50 ([1]; 72 hours) | IC50 [2] | IC50 ([3]; 6 hours) | EC50 ([4]; 72 hours) | EC50 ([1]; Homo sapiens, SK-BR-3, 72 h) | IC50 ([3]; Homo sapiens, SK-BR-3, 6 h) | IC50 ([2]; Homo sapiens, T47D, 6 h) | EC50 ([4]; Homo sapiens, T47D, 72 h) | Compound
 | 2000 to 15000 nM |  | 2000 to 15000 nM | > 15000 nM | > 15000 nM |  |  | Cc1cc(C(C)Nc2ccccc2C(=O)O)c2cc(N3CCS(=O)(=O)CC3)n(C)c(=O)c2c1 (single isomer, unassigned) [Example 150]
> 15000 nM | > 15000 nM | > 15000 nM | > 15000 nM |  |  |  |  | Cc1cc(C(C)Nc2ccccc2C(=O)O)c2cc(N3CCS(=O)(=O)CC3)n(C)c(=O)c2c1 (single isomer, unassigned) [Example 151]
2000 to 15000 nM | 1 to 500 nM | 2000 to 15000 nM | 1 to 500 nM |  |  |  |  | COC1(C)CCN(c2cc3c(C(C)Nc4ccccc4C(=O)O)cc(C)cc3c(=O)n2C)CC1 (single isomer, unassigned) [Example 153]
> 15000 nM | > 15000 nM | > 15000 nM | 2000 to 15000 nM |  |  |  |  | COC1(C)CCN(c2cc3c(C(C)Nc4ccccc4C(=O)O)cc(C)cc3c(=O)n2C)CC1 (single isomer, unassigned) [Example 154]
> 15000 nM | 2000 to 15000 nM | > 15000 nM | 2000 to 15000 nM |  |  |  |  | Cc1cc(C(C)Nc2ccccc2C(=O)O)c2cc(N3CCC4(CCOCC4)CC3)n(C)c(=O)c2c1 (single isomer, unassigned) [Example 166]
2000 to 15000 nM | 1 to 500 nM | 2000 to 15000 nM | 1 to 500 nM |  |  |  |  | Cc1cc(C(C)Nc2ccccc2C(=O)O)c2cc(N3CCC4(CCOCC4)CC3)n(C)c(=O)c2c1 (single isomer, unassigned) [Example 167]
> 15000 nM | 1 to 500 nM | 2000 to 15000 nM | 1 to 500 nM |  |  |  |  | Cc1cc(C(C)Nc2ccccc2C(=O)O)c2cc(N3CCC4(CCCCO4)CC3)n(C)c(=O)c2c1 (single isomer, unassigned) [Example 168]
> 15000 nM | 2000 to 15000 nM | > 15000 nM | > 15000 nM |  |  |  |  | Cc1cc(C(C)Nc2ccccc2C(=O)O)c2cc(N3CCC4(CCCCO4)CC3)n(C)c(=O)c2c1 (single isomer, unassigned) [Example 169]
 | > 15000 nM |  | > 15000 nM | > 15000 nM | > 15000 nM |  |  | Cc1cc(C(C)Nc2ccccc2C(=O)O)c2cc(N3CC(C)(O)C3)n(C)c(=O)c2c1 (single isomer, unassigned) [Example 181]
> 15000 nM | 2000 to 15000 nM | > 15000 nM | 2000 to 15000 nM |  |  |  |  | Cc1cc(C(C)Nc2ccccc2C(=O)O)c2cc(N3CC(C)(O)C3)n(C)c(=O)c2c1 (single isomer, unassigned) [Example 182]
> 15000 nM | 1 to 500 nM | > 15000 nM | 500 to 2000 nM |  |  |  |  | COC1(C)CN(c2cc3c(C(C)Nc4ccccc4C(=O)O)cc(C)cc3c(=O)n2C)C1 (single isomer, unassigned) [Example 213]

Second part, the compound before the results:

Compound | EC50 ([1]; 72 hours) | IC50 [2] | IC50 ([3]; 6 hours) | EC50 ([4]; 72 hours) | EC50 ([1]; Homo sapiens, SK-BR-3, 72 h) | IC50 ([3]; Homo sapiens, SK-BR-3, 6 h) | IC50 ([2]; Homo sapiens, T47D, 6 h) | EC50 ([4]; Homo sapiens, T47D, 72 h)
Cc1cc(C(C)Nc2ccccc2C(=O)O)c2cc(N3CCN(c4ccc(C)nc4)CC3)n(C)c(=O)c2c1 (single isomer, unassigned) [Example 146] | > 15000 nM | > 15000 nM | > 15000 nM | 2000 to 15000 nM |  |  |  | 
Cc1cc(C(C)Nc2ccccc2C(=O)O)c2cc(N3CCN(C(=O)OC(C)C)CC3)n(C)c(=O)c2c1 (single isomer, unassigned) [Example 149] | 2000 to 15000 nM | 1 to 500 nM | 2000 to 15000 nM | 1 to 500 nM |  |  |  | 
COc1ccc(-c2cc3c(C(C)Nc4ccccc4C(=O)O)cc(C)cc3c(=O)n2C)cn1 (single isomer, unassigned) [Example 155] |  | 1 to 500 nM |  | 1 to 500 nM | > 15000 nM | > 15000 nM |  | 
COc1ccc(-c2cc3c(C(C)Nc4ccccc4C(=O)O)cc(C)cc3c(=O)n2C)cn1 (single isomer, unassigned) [Example 156] | > 15000 nM | 2000 to 15000 nM | > 15000 nM | 2000 to 15000 nM |  |  |  | 
Cc1cc(C(C)Nc2ccccc2C(=O)O)c2cc(N3Cc4ccc(F)c(F)c4C3)n(C)c(=O)c2c1 (single isomer, unassigned) [Example 177] |  | > 15000 nM |  | 2000 to 15000 nM | > 15000 nM | > 15000 nM |  | 
Cc1cc(C(C)Nc2ccccc2C(=O)O)c2cc(N3Cc4ccc(F)c(F)c4C3)n(C)c(=O)c2c1 (single isomer, unassigned) [Example 178] | > 15000 nM | 1 to 500 nM | > 15000 nM | 500 to 2000 nM |  |  |  | 
COC1(C)CN(c2cc3c(C(C)Nc4ccccc4C(=O)O)cc(C)cc3c(=O)n2C)C1 (single isomer, unassigned) [Example 183] |  | > 15000 nM |  | > 15000 nM | > 15000 nM | > 15000 nM |  | 
Cc1cc([C@@H](C)Nc2ccccc2C(=O)O)c2cc(N3CC4CC3CN4CC(F)(F)F)n(C)c(=O)c2c1 (single isomer, unassigned) [Example 211] |  |  |  | 500 to 2000 nM | > 15000 nM | > 15000 nM | 1 to 500 nM | 
Cc1cc([C@@H](C)Nc2ccccc2C(=O)O)c2cc(N3CC4CC3CN4CC(F)(F)F)n(C)c(=O)c2c1 (single isomer, unassigned) [Example 224] | > 15000 nM | 1 to 500 nM | > 15000 nM | 1 to 500 nM |  |  |  | 
CCN1CCN(c2cc3c([C@@H](C)Nc4ccccc4C(=O)O)cc(C)cc3c(=O)n2C)CC1C(F)(F)F (single isomer, unassigned) [Example 266] | > 15000 nM |  |  |  |  | > 15000 nM | 1 to 500 nM | 1 to 500 nM
CCN1CCN(c2cc3c([C@@H](C)Nc4ccccc4C(=O)O)cc(C)cc3c(=O)n2C)CC1C(F)(F)F (single isomer, unassigned) [Example 267] | 2000 to 15000 nM | 1 to 500 nM | > 15000 nM | 1 to 500 nM |  |  |  | 
Cc1cc([C@@H](C)Nc2ccccc2C(=O)O)c2cc(N3CCN(C(C)C(F)(F)F)CC3)n(C)c(=O)c2c1 (single isomer, unassigned) [Example 278] |  |  |  |  | > 15000 nM | > 15000 nM | 1 to 500 nM | 1 to 500 nM
Cc1cc([C@@H](C)Nc2ccccc2C(=O)O)c2cc(N3CCN(C(C)C(F)(F)F)CC3)n(C)c(=O)c2c1 (single isomer, unassigned) [Example 279] | > 15000 nM | 1 to 500 nM | > 15000 nM | 1 to 500 nM |  |  |  | 
Cc1cc([C@@H](C)Nc2ccccc2C(=O)O)c2cc(N3CCN(C)C(C(F)(F)F)C3)n(C)c(=O)c2c1 (single isomer, unassigned) [Example 301] |  |  |  |  | > 15000 nM | > 15000 nM | 1 to 500 nM | 1 to 500 nM
Cc1cc([C@@H](C)Nc2ccccc2C(=O)O)c2cc(N3CCN(C)C(C(F)(F)F)C3)n(C)c(=O)c2c1 (single isomer, unassigned) [Example 302] | > 15000 nM | 1 to 500 nM | > 15000 nM | 1 to 500 nM |  |  |  | 
COC[C@@H]1CC1c1cc2c([C@@H](C)Nc3ccccc3C(=O)O)cc(C)cc2c(=O)n1C (single isomer, unassigned) [Example 308] | 2000 to 15000 nM |  | 2000 to 15000 nM |  |  |  | 1 to 500 nM | 1 to 500 nM
Cc1cc([C@@H](C)Nc2ccccc2C(=O)O)c2cc(C3C[C@H]3C3CC3)n(C)c(=O)c2c1 (single isomer, unassigned) [Example 309] |  |  | 2000 to 15000 nM |  | > 15000 nM |  | 1 to 500 nM | 1 to 500 nM
